This is an account of results in BindingDB's records for doi:10.1021/jm00050a008 (University of North Carolina, 1995).

A short description of this test: The compound was tested for affinity towards sigma-3 receptor.
As for `CCCN(C)C1Cc2ccccc2C(c2ccccc2)C1` (stereo not given), it took 4.5 nM to reach half-maximal inhibition (IC50). This counts as single-digit nanomolar.
For the molecule `CNC1Cc2ccccc2C(c2ccccc2)C1` (stereo not given), the IC50 (as a rule, the point on the concentration scale where inhibition reaches its midpoint) amounted to 79 nM. Against the preceding molecule, the IC50 is about 18-fold higher.
In the case of `CCN(CC)C1Cc2ccccc2C(c2ccccc2)C1` (trans isomer) it was 2.2 nM; in that of `CCCNC1Cc2ccccc2C(c2ccccc2)C1` (stereo not given), 59 nM; in that of `CCCN(CCC)C1Cc2ccccc2C(c2ccccc2)C1` (stereo not given), 13 nM.
